Where two headings read alike, the source gives them in different places.
Columns and labels:
Format in all cases: cell-based
[1] = test system: NIH-3T3 cells, or HepG2 cells; assay: Mitochondrial uncoupling activity assay (loss of mitochondrial TMRE staining in live cells); settings: 2 h, read-out: Activities (mitochondrial uncoupling activity, EC50)
Experimental: Mitochondrial uncoupling analyses in live cells were performed with cultured mammalian cells, the NIH-3T3 cells, or HepG2 cells. Cells were seeded onto 6-well plate and cultured in DMEM medium supplemented with 10% fetal bovine serum and 2 mM glutamine. Cells were allowed to grow to logarithmic growth phase prior to experiments. The cells were treated with each individual synthesized compound at various concentrations for two hours, followed by staining with TMRE (tetramethylrhodamine ethyl ester) at final concentration of 100 nM for 15 minutes. The cells were then washed once with PBS, and examined under fluorescence microscopy. A positive control of cells treated with various concentrations of niclosamide ethanolamine were used as positive control. Percentage of cells losing mitochondrial TMRE staining was used as a quantification of mitochondrial uncoupling activity.

AMPK = AMPK activation analysis by immunoblotting with antibody against phosphorylated AMPK; settings: two-hour treatment, phospho-AMPKα (Thr172) immunoblot
Experimental: AMPK activation analysis by immunoblotting assay with antibody against phosphorylated AMPK: mouse pancreatic cancer cell line, Panc02, or NIH-3T3 fibroblasts, or human liver carcinoma cell line HepG2, were cultured in Dulbecco's modified Eagle's medium (DMEM) supplemented with 10% (vol/vol) fetal bovine serum, 100 unit·ml^−1 of penicillin, 100 μg·ml^−1 of streptomycin and 0.29 mg·ml^−1 of L-glutamine at 37° C. and 5% CO2. For treatment, individual compound was first dissolved in DMSO to make stock solution, and then was added directly to the culturing medium to desired concentration by at least 1:1000 dilution. After a two-hour treatment, cells were collected and homogenized within lysis buffer containing 10 mM TRIS-HCl (pH 7.9), 10% glycerol, 0.1 mM EDTA, 100 mM KCl, 0.2% NP-40, 0.5 mM PMSF, 1 mM DTT, mini-complete protease inhibitor cocktail (Roche, 11836153001), and phosphatase inhibitor cocktail (Roche, 04906845001) if required. Nuclei and insoluble debris were pelleted in an Eppendorf micro-centrifuge at 10,000 rpm for 5 min at 4° C. Cell extracts were then stored at −20° C. or immediately subjected to sodium dodecyl sulfate-polyacrylamide gel electrophoresis (SDS-PAGE). […] Quantification was determined by measuring band intensity using ImageJ software and calculating the ratio of protein of interesting to internal loading control. […]

[2] = test system: mouse colon cancer cell line MC38; assay: Clonogenic assay for cell proliferation inhibition (colony formation); settings: MC-38, MC38 cells, treated 24-48 hrs, colonies counted after 2 weeks, read-out: IC50 concentrations (inhibition of colony formation)
Experimental: Clonogenic assay for determining activity of cell proliferation inhibition: mouse colon cancer cell line MC38 was seeded onto 6-well plates at the density of about 200 cells per well, grown under medium conditions as described above, after attachment, cells were treated with ascending concentrations of example compounds for 24-48 hrs. The drug-containing medium was then removed and fresh medium without drug was added to each well. Cells were then grown for 2 weeks for colony formation. During the two weeks, old medium was aspirated out and fresh drug-free medium was added to the wells every two days. At the end of the experiment, the colonies were counted for the treatment at each concentration. IC50 is defined as the concentration that inhibits 50% of colony formation as compared to the no drug treatment control.

[3] = two-hour treatment, TMRE 100 nM staining, concentration at which mitochondrial TMRE fluorescence is reduced to about 50%

O=C(Nc1ccc(Cl)nn1)c1cc(Cl)ccc1O [Compound 10, 5-Chloro-N-(6-chloropyridazin-3-yl)-2-hydroxybenzamide]
EC50 [1]: 10 to 50 µM

N#Cc1ccc(NC(=O)c2cc(Cl)ccc2OP(=O)(O)O)c(Cl)c1 [Compound 13, 4-Chloro-2-((2-chloro-4-cyanophenyl)carbamoyl)phenyl dihydrogen phosphate]
EC50 [1]: < 10 µM | Concentrations for AMPK activation (AMPK): *** (<=10 μM)

O=C(Nc1ccc2ccncc2c1)c1cc(Cl)ccc1O [Compound 21, 5-Chloro-2-hydroxy-N-(isoquinolin-7-yl)benzamide]
EC50 [1, 3]: 10 to 50 µM

O=C(Nc1ccc2nccnc2c1)c1cc(Cl)ccc1O [Compound 22, 5-Chloro-2-hydroxy-N-(quinoxalin-6-yl)benzamide]
EC50 [1, 3]: 10 to 50 µM

O=C(Nc1cnccn1)c1cc(Cl)ccc1O [Compound 1, 5-Chloro-2-hydroxy-N-(pyrazin-2-yl)benzamide]
EC50 [1]: < 10 µM

N#Cc1ccc(NC(=O)c2cc(Cl)ccc2OP(=O)(O)O)c(Cl)c1 [Compound 14, Sodium 4-chloro-2-((2-chloro-4-cyanophenyl)carbamoyl)phenyl phosphate]
IC50 [2]: ≤ 10 µM

N#Cc1ccc(NC(=O)c2cc(Cl)ccc2O)nc1 [Compound 11, 5-Chloro-N-(5-cyanopyridin-2-yl)-2-hydroxybenzamide]
EC50 [1]: 10 to 50 µM

O=C(Nc1ccc2scnc2c1)c1cc(Cl)ccc1O [Compound 15, N-(Benzo[d]thiazol-5-yl)-5-chloro-2-hydroxybenzamide]
EC50 [1, 3]: < 10 µM

N#Cc1cnc(NC(=O)c2cc(Cl)ccc2O)cn1 [Compound 3, 5-Chloro-N-(5-cyanopyrazin-2-yl)-2-hydroxybenzamide]
EC50 [1]: < 10 µM

O=C(Nc1cncnc1)c1cc(Cl)ccc1O [Compound 5, 5-Chloro-2-hydroxy-N-(pyrimidin-5-yl)benzamide]
EC50 [1]: > 50 µM

CCOP(=O)(O)Oc1ccc(Cl)cc1C(=O)Nc1ccc(C#N)cc1Cl [Compound 12, 4-Chloro-2-((2-chloro-4-cyanophenyl)carbamoyl)phenyl ethyl hydrogen phosphate]
EC50 [1]: > 50 µM

N#Cc1cnc(NC(=O)c2cc(Cl)ccc2O)c(Cl)n1 [Compound 4, 5-Chloro-N-(3-chloro-5-cyanopyrazin-2-yl)-2-hydroxybenzamide]
EC50 [1]: > 50 µM

O=C(Nc1cnc(Br)cn1)c1cc(Cl)ccc1O [Compound 2, N-(5-Bromopyrazin-2-yl)-5-chloro-2-hydroxybenzamide]
EC50 [1, 3]: < 10 µM | Concentrations for AMPK activation (AMPK): *** (<=10 μM)

O=C(Nc1cnc(Cl)nc1)c1cc(Cl)ccc1O [Compound 7, 5-Chloro-N-(2-chloropyrimidin-5-yl)-2-hydroxybenzamide]
EC50 [1, 3]: < 10 µM

O=C(Nc1nc2ccc(C(F)(F)F)cc2s1)c1cc(Cl)ccc1O [Compound 31, 5-chloro-2-hydroxy-N-(6-(trifluoromethyl)benzo[d]thiazol-2-yl)benzamide]
EC50 [1]: < 10 µM

O=C(Nc1cnc(Cl)nc1Cl)c1cc(Cl)ccc1O [Compound 6, 5-Chloro-N-(2,4-dichloropyrimidin-5-yl)-2-hydroxybenzamide]
EC50 [1, 3]: > 50 µM

N#Cc1cnc(NC(=O)c2cc(Cl)ccc2OP(=O)(O)O)cn1 [Compound 19, 4-Chloro-2-((5-cyanopyrazin-2-yl)carbamoyl)phenyl dihydrogen phosphate]
EC50 [1]: < 10 µM

N#Cc1ccc2nc(NC(=O)c3cc(Cl)ccc3O)sc2c1 [Compound 36, 5-chloro-N-(6-cyanobenzo[d]thiazol-2-yl)-2-hydroxybenzamide]
EC50 [1, 3]: < 10 µM

O=C(Nc1cccnn1)c1cc(Cl)ccc1O [Compound 9, 5-Chloro-2-hydroxy-N-(pyridazin-3-yl)benzamide]
EC50 [1]: > 50 µM

N#Cc1cnc(NC(=O)c2cc(Cl)ccc2O)s1 [Compound 16, 5-chloro-N-(5-cyanothiazol-2-yl)-2-hydroxybenzamide]
EC50 [1, 3]: < 10 µM

O=C(Nc1nc2c(C(F)(F)F)cccc2s1)c1cc(Cl)ccc1O [Compound 29, 5-Chloro-2-hydroxy-N-(4-(trifluoromethyl)benzo[d]thiazol-2-yl)benzamide]
EC50 [1]: < 10 µM

N#Cc1ncc(NC(=O)c2cc(Cl)ccc2O)cn1 [Compound 8, 5-Chloro-N-(2-cyanopyrimidin-5-yl)-2-hydroxybenzamide]
EC50 [1, 3]: 10 to 50 µM

O=C(Nc1nc2c(F)cccc2s1)c1cc(Cl)ccc1O [Compound 18, 5-Chloro-N-(4-fluorobenzo[d]thiazol-2-yl)-2-hydroxybenzamide]
EC50 [1]: < 10 µM

O=C(Nc1cnc(C(F)(F)F)cn1)c1cc(Cl)ccc1O [Compound 35, 5-chloro-2-hydroxy-N-(5-(trifluoromethyl)pyrazin-2-yl)benzamide]
EC50 [1, 3]: < 10 µM
